pKd: −log10 of the molar value.
Legend:
PABPN1 [1] = target: T1, PABPN1 (Homo sapiens, UniProt Q86U42, INS11AAAAAAA); assay: ANS fluorescence titration; format: binding
T1 construct: recombinant full-length (306 aa for normal PABPN1, 10-Ala tract, N-terminus M-(A)10-GAAGGRG); details in supplement S1
T1 sequence (Q86U42 with tags, fused parts or gaps INS11AAAAAAA): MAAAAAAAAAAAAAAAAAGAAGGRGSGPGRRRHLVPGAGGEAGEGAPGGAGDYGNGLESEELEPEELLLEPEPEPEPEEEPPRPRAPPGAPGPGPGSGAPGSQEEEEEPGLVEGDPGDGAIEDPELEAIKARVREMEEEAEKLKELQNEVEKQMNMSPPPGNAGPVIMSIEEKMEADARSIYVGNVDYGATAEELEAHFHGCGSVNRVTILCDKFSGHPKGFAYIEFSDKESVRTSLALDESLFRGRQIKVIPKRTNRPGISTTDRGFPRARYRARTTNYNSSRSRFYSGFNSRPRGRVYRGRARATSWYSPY

PABPN1 [2] = target: T2, PABPN1 (Homo sapiens, UniProt Q86U42); assay: ANS fluorescence titration; format: binding
T2 construct: recombinant full-length (306 aa for normal PABPN1, 10-Ala tract, N-terminus M-(A)10-GAAGGRG); details in supplement S1
T2 sequence (Q86U42 1-306): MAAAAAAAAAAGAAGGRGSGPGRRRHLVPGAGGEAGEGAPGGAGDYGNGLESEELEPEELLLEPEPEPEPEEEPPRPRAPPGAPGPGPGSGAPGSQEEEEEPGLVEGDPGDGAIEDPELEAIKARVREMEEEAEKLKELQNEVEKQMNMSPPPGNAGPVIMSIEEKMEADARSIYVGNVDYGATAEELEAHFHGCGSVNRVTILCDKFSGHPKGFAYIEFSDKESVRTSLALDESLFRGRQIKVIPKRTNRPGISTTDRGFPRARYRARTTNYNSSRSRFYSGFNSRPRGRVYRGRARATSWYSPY

pKd (PABPN1 [1]): 4.38
pKd (PABPN1 [2]): 4.12
Structure (SMILES): O=S(=O)(O)c1cccc2cccc(Nc3ccccc3)c12 [1-Anilino naphthalene-8-sulfonic acid]

From PMC2712759, “Hsp70 Chaperones and Type I PRMTs Are Sequestered at Intranuclear Inclusions Caused by Polyalanine Expansions in PABPN1” (PLoS ONE, 2009)
